ChEMBL document CHEMBL1201861, “Genomics of Drug Sensitity in Cancer screening data, Wellcome Trust Sanger Institute”

Legend:
Experiment in all cases: cells
Details in all cases: Homo sapiens
ACN = format: functional, cell-based;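 note: growth inhibition of the human ACN cell line, read out via cell viability testing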
Description: SANGER: Inhibition of human ACN cell growth in a cell viability assay.

NCI-H1581 = format: functional, cell-based;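 note: cell growth inhibition read out by a viability assay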
Description: SANGER: Inhibition of human NCI-H1581 cell growth in a cell viability assay.

EM-2 = format: functional, cell-based;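 note: growth inhibition of EM-2 cells, read out with a cell viability assay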
Description: SANGER: Inhibition of human EM-2 cell growth in a cell viability assay.

A4-Fuk = format: functional, cell-based;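 note: growth inhibition of A4-Fuk cells, read out by a cell viability assay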
Description: SANGER: Inhibition of human A4-Fuk cell growth in a cell viability assay.

TE-11 = format: functional, cell-based;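 note: growth inhibition of human TE-11 cells, read out by a cell viability assay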
Description: SANGER: Inhibition of human TE-11 cell growth in a cell viability assay.

OS-RC-2 = format: functional, cell-based;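 note: growth inhibition of human OS-RC-2 cells, measured by a cell viability assay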
Description: SANGER: Inhibition of human OS-RC-2 cell growth in a cell viability assay.

KM12 = format: functional, cell-based;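 note: KM12 cell growth inhibition, read out with a cell viability assay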
Description: SANGER: Inhibition of human KM12 cell growth in a cell viability assay.

SJSA-1 = format: functional, cell-based;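 note: growth inhibition of human SJSA-1 cells, read out through a cell viability measurement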
Description: SANGER: Inhibition of human SJSA-1 cell growth in a cell viability assay.

CAS-1 = format: functional, cell-based;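 note: growth inhibition of CAS-1 cells, measured with a cell viability assay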
Description: SANGER: Inhibition of human CAS-1 cell growth in a cell viability assay.

DOHH-2 = format: functional, cell-based;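 note: growth inhibition of human DOHH-2 cells, read out with a cell viability assay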
Description: SANGER: Inhibition of human DOHH-2 cell growth in a cell viability assay.

TE-1 = format: functional, cell-based
Description: SANGER: Inhibition of human TE-1 cell growth in a cell viability assay.

LS-123 = format: functional, cell-based
Description: SANGER: Inhibition of human LS-123 cell growth in a cell viability assay.

NCI-H2126 = format: functional, cell-based;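 note: growth inhibition of the cancer cell line, determined with a cell viability readout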
Description: SANGER: Inhibition of human NCI-H2126 cell growth in a cell viability assay.

8-MG-BA = format: functional, cell-based;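 note: growth inhibition of 8-MG-BA cells, read out with a cell viability assay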
Description: SANGER: Inhibition of human 8-MG-BA cell growth in a cell viability assay.

PSN1 = format: functional, cell-based;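 note: suppression of growth of human PSN1 cells, read out by a cell viability assay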
Description: SANGER: Inhibition of human PSN1 cell growth in a cell viability assay.

HOP-62 = format: functional, cell-based;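 note: cell growth inhibition determined with a viability assay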
Description: SANGER: Inhibition of human HOP-62 cell growth in a cell viability assay.

P30-OHK = format: functional, cell-based;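 note: growth inhibition of the P30-OHK cell line, read out with a cell viability assay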
Description: SANGER: Inhibition of human P30-OHK cell growth in a cell viability assay.

NCI-H226 = format: functional, cell-based;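 note: cell viability read-out used to gauge growth inhibition of the cells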
Description: SANGER: Inhibition of human NCI-H226 cell growth in a cell viability assay.

SNU-5 = format: functional, cell-based;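 note: cell viability readout used to measure growth inhibition in human NCI-SNU-5 cells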
Description: SANGER: Inhibition of human NCI-SNU-5 cell growth in a cell viability assay.

CW-2 = format: functional, cell-based;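 note: growth inhibition of CW-2 cells, read out by a cell viability assay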
Description: SANGER: Inhibition of human CW-2 cell growth in a cell viability assay.

SW684 = format: functional, cell-based;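 note: growth inhibition of human SW684 cells, measured by a cell viability assay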
Description: SANGER: Inhibition of human SW684 cell growth in a cell viability assay.

ML-2 = format: functional, cell-based;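 note: growth inhibition of ML-2 cells, measured with a cell viability readout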
Description: SANGER: Inhibition of human ML-2 cell growth in a cell viability assay.

HCE-T = format: functional, cell-based;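 note: cell viability assay read-out, reporting inhibition of HCE-T cell growth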
Description: SANGER: Inhibition of human HCE-T cell growth in a cell viability assay.

MFH-ino = format: functional, cell-based;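 note: growth inhibition of human MFH-ino cells, read out by a cell viability assay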
Description: SANGER: Inhibition of human MFH-ino cell growth in a cell viability assay.

SK-LMS-1 = format: functional, cell-based;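 note: growth inhibition of human SK-LMS-1 cells, read out with a cell viability assay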
Description: SANGER: Inhibition of human SK-LMS-1 cell growth in a cell viability assay.

NH-12 = format: functional, cell-based;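 note: growth inhibition of NH-12 cells, read out with a cell viability assay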
Description: SANGER: Inhibition of human NH-12 cell growth in a cell viability assay.

BB30-HNC = format: functional, cell-based;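 note: growth inhibition of the cultured cell line, read out by a cell viability assay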
Description: SANGER: Inhibition of human BB30-HNC cell growth in a cell viability assay.

EW-16 = format: functional, cell-based;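 note: growth inhibition of human EW-16 cells, read out as cell viability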
Description: SANGER: Inhibition of human EW-16 cell growth in a cell viability assay.

COR-L88 = format: functional, cell-based;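 note: growth inhibition of COR-L88 cells, read out with a cell viability assay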
Description: SANGER: Inhibition of human COR-L88 cell growth in a cell viability assay.

BB65-RCC = format: functional, cell-based;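 note: growth inhibition of the cell line, measured with a cell viability assay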
Description: SANGER: Inhibition of human BB65-RCC cell growth in a cell viability assay.

LS-1034 = format: functional, cell-based
Description: SANGER: Inhibition of human LS-1034 cell growth in a cell viability assay.

ES7 = format: functional, cell-based;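 note: growth inhibition of cultured human ES7 cells, read out as cell viability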
Description: SANGER: Inhibition of human ES7 cell growth in a cell viability assay.

IA-LM = format: functional, cell-based;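 note: cell viability assay measuring growth inhibition of human IA-LM cells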
Description: SANGER: Inhibition of human IA-LM cell growth in a cell viability assay.

COLO-829 = format: functional, cell-based
Description: SANGER: Inhibition of human COLO-829 cell growth in a cell viability assay.

LU-139 = format: functional, cell-based
Description: SANGER: Inhibition of human LU-139 cell growth in a cell viability assay.

LB2241-RCC = format: functional, cell-based;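 note: cell viability assay measuring how strongly the cultured human renal carcinoma line is prevented from growing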
Description: SANGER: Inhibition of human LB2241-RCC cell growth in a cell viability assay.

U-87 MG = format: functional, cell-based, U-87MG ATCC;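 note: growth inhibition of the cells measured with a viability assay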
Description: SANGER: Inhibition of human U-87-MG cell growth in a cell viability assay.

EW-18 = format: functional, cell-based;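 note: growth inhibition of EW-18 cells, read out by a cell viability assay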
Description: SANGER: Inhibition of human EW-18 cell growth in a cell viability assay.

LC-2-ad = format: functional, cell-based;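 note: growth inhibition of human LC-2-ad cells, read out with a cell viability assay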
Description: SANGER: Inhibition of human LC-2-ad cell growth in a cell viability assay.

NB69 = format: functional, cell-based;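 note: growth inhibition of NB69 cells, determined by a cell viability assay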
Description: SANGER: Inhibition of human NB69 cell growth in a cell viability assay.

BV-173 = format: functional, cell-based
Description: SANGER: Inhibition of human BV-173 cell growth in a cell viability assay.

NMC-G1 = format: functional, cell-based;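 note: growth inhibition of the NMC-G1 cell line, measured with a cell viability read-out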
Description: SANGER: Inhibition of human NMC-G1 cell growth in a cell viability assay.

A3-KAW = format: functional, cell-based;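 note: growth inhibition of human A3-KAW cells, read out with a cell viability assay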
Description: SANGER: Inhibition of human A3-KAW cell growth in a cell viability assay.

K5 = format: functional, cell-based
Description: SANGER: Inhibition of human K5 cell growth in a cell viability assay.

KGN = format: functional, cell-based;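 note: growth inhibition of KGN cells, read out with a cell viability assay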
Description: SANGER: Inhibition of human KGN cell growth in a cell viability assay.

MPP-89 = format: functional, cell-based;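 note: growth inhibition of human MPP-89 cells, read out with a cell viability assay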
Description: SANGER: Inhibition of human MPP-89 cell growth in a cell viability assay.

LS-411N = format: functional, cell-based
A498 = format: functional, cell-based;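 note: growth inhibition of human A498 cells, read out with a cell viability assay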
Description: SANGER: Inhibition of human A498 cell growth in a cell viability assay.

NCI-H23 = format: functional, cell-based;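 note: cell viability assay measuring growth inhibition of NCI-H23 cells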
Description: SANGER: Inhibition of human NCI-H23 cell growth in a cell viability assay.

SF-539 = format: functional, cell-based;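 note: Read-out is a cell viability assay, with IC50 reflecting inhibition of cell growth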
Description: SANGER: Inhibition of human SF539 cell growth in a cell viability assay.

MHH-NB-11 = format: functional, cell-based;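 note: growth inhibition of human MHH-NB-11 cells, read out by a cell viability assay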
Description: SANGER: Inhibition of human MHH-NB-11 cell growth in a cell viability assay.

QIMR-WIL = format: functional, cell-based;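 note: growth inhibition of QIMR-WIL cells, read out with a cell viability assay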
Description: SANGER: Inhibition of human QIMR-WIL cell growth in a cell viability assay.

EW-1 = format: functional, cell-based
Description: SANGER: Inhibition of human EW-1 cell growth in a cell viability assay.

COLO-668 = format: functional, cell-based
Description: SANGER: Inhibition of human COLO-668 cell growth in a cell viability assay.

ALL-PO = format: functional, cell-based;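 note: growth inhibition of ALL-PO cells, read out by a cell viability assay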
Description: SANGER: Inhibition of human ALL-PO cell growth in a cell viability assay.

NB13 = format: functional, cell-based;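 note: cell viability readout measuring growth inhibition of human NB13 cells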
Description: SANGER: Inhibition of human NB13 cell growth in a cell viability assay.

D283 Med = format: functional, cell-based
Description: SANGER: Inhibition of human D-283MED cell growth in a cell viability assay.

EW-3 = format: functional, cell-based;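 note: cell viability assay read-out, IC50 reflects inhibition of growth of the EW-3 cells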
Description: SANGER: Inhibition of human EW-3 cell growth in a cell viability assay.

CTB-1 = format: functional, cell-based
Description: SANGER: Inhibition of human CTB-1 cell growth in a cell viability assay.

D-502MG = format: functional, cell-based
Description: SANGER: Inhibition of human D-502MG cell growth in a cell viability assay.

TE-8 = format: functional, cell-based;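 note: growth inhibition of TE-8 cells, measured with a cell viability readout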
Description: SANGER: Inhibition of human TE-8 cell growth in a cell viability assay.

SW872 = format: functional, cell-based;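 note: growth inhibition of SW872 cells, read out by a viability assay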
Description: SANGER: Inhibition of human SW872 cell growth in a cell viability assay.

LB771-HNC = format: functional, cell-based;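 note: growth inhibition of LB771-HNC human cells, read out with a cell viability assay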
Description: SANGER: Inhibition of human LB771-HNC cell growth in a cell viability assay.

NCI-H209 = format: functional, cell-based
Description: SANGER: Inhibition of human NCI-H209 cell growth in a cell viability assay.

HT-144 = format: functional, cell-based
Description: SANGER: Inhibition of human HT-144 cell growth in a cell viability assay.

HCE-4 = format: functional, cell-based
Description: SANGER: Inhibition of human HCE-4 cell growth in a cell viability assay.

Cc1nc(Nc2ncc(C(=O)Nc3c(C)cccc3Cl)s2)cc(N2CCN(CCO)CC2)n1 [DASATINIB]
IC50 (ACN): > 1280 nM | IC50 (NCI-H1581): > 1280 nM | IC50 (EM-2): < 5 nM | IC50 (A4-Fuk): > 1280 nM | IC50 (TE-11): 78.6 nM | IC50 (OS-RC-2): 20.3 nM | IC50 (KM12): > 1280 nM | IC50 (SJSA-1): > 1280 nM | IC50 (CAS-1): > 1280 nM | IC50 (DOHH-2): 17.2 nM | IC50 (TE-1): 105 nM | IC50 (LS-123): 141 nM | IC50 (NCI-H2126): > 1280 nM | IC50 (8-MG-BA): 155 nM | IC50 (PSN1): 44.7 nM | IC50 (HOP-62): 18.3 nM | IC50 (P30-OHK): > 1280 nM | IC50 (NCI-H226): > 1280 nM | IC50 (SNU-5): > 1280 nM | IC50 (CW-2): > 1280 nM | IC50 (SW684): 350 nM | IC50 (ML-2): > 1280 nM | IC50 (HCE-T): > 1280 nM | IC50 (MFH-ino): 47.2 nM | IC50 (SK-LMS-1): > 1280 nM | IC50 (NH-12): > 1280 nM | IC50 (BB30-HNC): 54.4 nM | IC50 (EW-16): 762 nM | IC50 (COR-L88): > 1280 nM | IC50 (BB65-RCC): 82.3 nM | IC50 (LS-1034): > 1280 nM | IC50 (ES7): > 1280 nM | IC50 (IA-LM): > 1280 nM | IC50 (COLO-829): 122 nM | IC50 (LU-139): > 1280 nM | IC50 (LB2241-RCC): > 1280 nM | IC50 (U-87 MG): > 1280 nM | IC50 (EW-18): > 1280 nM | IC50 (LC-2-ad): 25.9 nM | IC50 (NB69): 144 nM | IC50 (BV-173): < 5 nM | IC50 (NMC-G1): 116 nM | IC50 (A3-KAW): 985 nM | IC50 (K5): 165 nM | IC50 (KGN): 19.4 nM | IC50 (MPP-89): 40.5 nM | IC50 (LS-411N): > 1280 nM | IC50 (A498): 72.8 nM | IC50 (NCI-H23): > 1280 nM | IC50 (SF-539): > 1280 nM | IC50 (MHH-NB-11): > 1280 nM | IC50 (QIMR-WIL): 706 nM | IC50 (EW-1): > 1280 nM | IC50 (COLO-668): > 1280 nM | IC50 (ALL-PO): > 1280 nM | IC50 (NB13): > 1280 nM | IC50 (D283 Med): > 1280 nM | IC50 (EW-3): > 1280 nM | IC50 (CTB-1): > 1280 nM | IC50 (D-502MG): 1230 nM | IC50 (TE-8): 15.8 nM | IC50 (SW872): 41.6 nM | IC50 (LB771-HNC): > 1280 nM | IC50 (NCI-H209): > 1280 nM | IC50 (HT-144): 536 nM | IC50 (HCE-4): 264 nM

C[C@]12O[C@H](C[C@]1(O)CO)n1c3ccccc3c3c4c(c5c6ccccc6n2c5c31)CNC4=O [LESTAURTINIB]
IC50 (ACN): 77.7 nM | IC50 (NCI-H1581): 356 nM | IC50 (EM-2): 450 nM | IC50 (A4-Fuk): 82.7 nM | IC50 (TE-11): 609 nM | IC50 (OS-RC-2): 566 nM | IC50 (KM12): 37.8 nM | IC50 (SJSA-1): 216 nM | IC50 (CAS-1): > 2000 nM | IC50 (DOHH-2): 184 nM | IC50 (TE-1): 553 nM | IC50 (LS-123): > 2000 nM | IC50 (NCI-H2126): > 2000 nM | IC50 (8-MG-BA): 124 nM | IC50 (PSN1): 231 nM | IC50 (HOP-62): > 2000 nM | IC50 (P30-OHK): 128 nM | IC50 (NCI-H226): > 2000 nM | IC50 (SNU-5): > 2000 nM | IC50 (CW-2): > 2000 nM | IC50 (SW684): 1920 nM | IC50 (ML-2): 195 nM | IC50 (HCE-T): 179 nM | IC50 (MFH-ino): > 2000 nM | IC50 (SK-LMS-1): > 2000 nM | IC50 (NH-12): 199 nM | IC50 (BB30-HNC): 935 nM | IC50 (EW-16): 226 nM | IC50 (COR-L88): > 2000 nM | IC50 (BB65-RCC): 23 nM | IC50 (LS-1034): > 2000 nM | IC50 (ES7): 94.8 nM | IC50 (IA-LM): > 2000 nM | IC50 (COLO-829): 1160 nM | IC50 (LU-139): > 2000 nM | IC50 (LB2241-RCC): 125 nM | IC50 (U-87 MG): > 2000 nM | IC50 (EW-18): 635 nM | IC50 (LC-2-ad): 257 nM | IC50 (NB69): 415 nM | IC50 (BV-173): 369 nM | IC50 (NMC-G1): 411 nM | IC50 (A3-KAW): 23.9 nM | IC50 (K5): 145 nM | IC50 (KGN): 138 nM | IC50 (MPP-89): 1040 nM | IC50 (LS-411N): 322 nM | IC50 (A498): 221 nM | IC50 (NCI-H23): 1690 nM | IC50 (SF-539): 175 nM | IC50 (MHH-NB-11): 1110 nM | IC50 (QIMR-WIL): 94.1 nM | IC50 (EW-1): 1080 nM | IC50 (COLO-668): > 2000 nM | IC50 (ALL-PO): 172 nM | IC50 (NB13): 469 nM | IC50 (D283 Med): 132 nM | IC50 (EW-3): 125 nM | IC50 (CTB-1): 497 nM | IC50 (D-502MG): 411 nM | IC50 (TE-8): 667 nM | IC50 (SW872): > 2000 nM | IC50 (LB771-HNC): > 2000 nM | IC50 (NCI-H209): 36.7 nM | IC50 (HT-144): 978 nM | IC50 (HCE-4): > 2000 nM
